Like-named read-outs stand apart in the source and are kept apart here.
How the values were obtained:
TGEV = format: cell-based, transmissible gastroenteritis virus of swine; settings: read-out: EC50, TGEV
FIPV = format: cell-based, feline infectious peritonitis virus; settings: read-out: EC50, FIPV
SARS-V = format: cell-based, SARS coronavirus; settings: read-out: EC50, SARS-V
FluV A [1] = settings: read-out: EC50 against FluV A; cited from earlier work
[2] = system: FluV A (N3H2/Ishikawa and H1N1/PR8); settings: rhodamine-labeled virus, MDCK cells; 10 and 25 μM; cited from earlier work
[3] = system: Ishikawa/AH3N2/(plaque purified) strain; settings: read-out: EC50, MTT; Parent strain; cited from earlier work
[4] = system: Ishikawa/AH3N2/(plaque purified) strain; settings: read-out: EC50, Plaque reduction; Parent strain; cited from earlier work
[5] = system: FluV A R-1 (HA Lys189Asn, Ile202Thr); settings: read-out: EC50, MTT; strain R-1; cited from earlier work
[6] = system: FluV A R-1 (HA Lys189Asn, Ile202Thr); settings: read-out: EC50, Plaque reduction; strain R-1; cited from earlier work
[7] = system: FluV A R-2 (HA Ile202Thr); settings: read-out: EC50, MTT; strain R-2; cited from earlier work
[8] = system: FluV A R-2 (HA Ile202Thr); settings: read-out: EC50, Plaque reduction; strain R-2; cited from earlier work
[9] = system: FluV A R-4 (HA Ile202Thr); settings: read-out: EC50, MTT; strain R-4; cited from earlier work
[10] = system: FluV A R-4 (HA Ile202Thr); settings: read-out: EC50, Plaque reduction; strain R-4; cited from earlier work
[11] = system: FluV A R-b (HA Lys189Asn); settings: read-out: EC50, MTT; strain R-b; cited from earlier work
[12] = system: FluV A R-b (HA Lys189Asn); settings: read-out: EC50, Plaque reduction; strain R-b; cited from earlier work
[13] = system: FluV A R-c (HA Lys189Asn, Ile202Val); settings: read-out: EC50, MTT; strain R-c; cited from earlier work
[14] = system: FluV A R-c (HA Lys189Asn, Ile202Val); settings: read-out: EC50, Plaque reduction; strain R-c; cited from earlier work
MDCK cells = settings: cited from earlier work
FluV A (H1N1/PR8) = settings: cited from earlier work
DFV = settings: cited from earlier work
FluV A [15] = settings: read-out: EC50, FluV A; MTT method; cited from earlier work
RSV = settings: read-out: EC50, RSV; MTT method; cited from earlier work
PfluV 2 = settings: read-out: EC50, PfluV 2; MTT method; cited from earlier work
CDV = settings: read-out: EC50, CDV; plaque reduction method; cited from earlier work
HIV-1 = settings: read-out: EC50, HIV-1; MTT method; cited from earlier work

## (iPrNH3)6H[PTi2W10O38(O2)2]H2O [PM-523]
TGEV
  EC50: 2.5 ± 0.6 µM
FIPV
  EC50: > 32 µM
SARS-V
  EC50: > 50 µM
FluV A [1]
  EC50: 2.4 µM
[2]
  dequenching of fluorescence (fusion of FluV A envelope with cell membrane): remarkably reduced
[3]
  EC50: 8.7 ± 1.2 µM
[4]
  EC50: 6.6 ± 0.8 µM
[5]
  EC50: 71.4 ± 6.8 µM
[6]
  EC50: 74.5 ± 10.2 µM
[7]
  EC50: 67.8 ± 6.5 µM
[8]
  EC50: 73.6 ± 10.8 µM
[9]
  EC50: 79 ± 10.2 µM
[10]
  EC50: 88.1 ± 9.9 µM
[11]
  EC50: 63 ± 7 µM
[12]
  EC50: 66.7 ± 6.2 µM
[13]
  EC50: 80.3 ± 6.8 µM
[14]
  EC50: 78.9 ± 9.4 µM
MDCK cells; single compound at 100 μM, untreated cells = 100%
  Percent viability of cells: 81.1 ± 2.9%
MDCK cells; single compound at 200 μM
  Percent viability of cells: 89.3 ± 5.8%
MDCK cells; single compound at 400 μM
  Percent viability of cells: 85.2 ± 3.5%
FluV A (H1N1/PR8); 2.4 mM PM-523 alone, data not shown
  appearance of lungs of infected mice: swollen and reddened due to congestion
FluV A (H1N1/PR8); 4.8 mM PM-523 aerosol every 12 hours for 4 days, 10 LD50 FluV A
  mice survived on the 9th day: half
FluV A (H1N1/PR8); 4.8 mM PM-523 alone
  survival at 14 days after the infection: 20%
DFV
  antiviral activity against DFV: did not have antiviral activities
DFV; read-out: EC50, DFV, MTT method
  EC50: > 61.5 µM
FluV A [15]
  EC50: 5.6 ± 2 µM
RSV
  EC50: 1.3 ± 0.5 µM
PfluV 2
  EC50: 2.5 ± 1.3 µM
CDV
  EC50: 7.3 ± 1.1 µM
HIV-1
  EC50: 0.3 ± 0.1 µM

Source: article PMC7118841 (Biomedicine & Pharmacotherapy, 2006)
